The experiment has as its system human peripheral blood mononuclear cells (PBMC). Nature of the experiment: HTS assay for small molecule immune potentiators: TNF-a production by human PBMC (sandwich ELISA). As to conditions: human PBMC 500,000 per mL, 18 h at 37° C., secreted TNF by sandwich ELISA. The format is cell-based. From the text: Candidate small molecule immune potentiators can be identified in vitro. Compounds are screened in vitro for their ability to stimulate human peripheral blood mononuclear cells to produce cytokines (e.g. TNF-a and IL-12 p40). Apoptosis inducing small molecules may be identified having this activity. These small molecule immunopotentiators have potential utility as adjuvants and immunotherapeutics.
In an assay procedure (High Throughput Screening (HTS)) for small molecule immune potentiators (SMIPs), human peripheral blood mononuclear cells (PBMC), 500,000 per mL in RPMI 1640 medium with 10% FCS, are distributed in 96 well plates (100,000 per well) already containing 5 μM of compound in DMSO. The PBMCs are incubated for 18 h at 37° C. in 5% CO2. Their ability to produce cytokines in response to the small molecule compounds is determined using a modified sandwich ELISA.
Briefly supernatants from the PBMC cultures are assayed for secreted TNF using a primary plate bound antibody for capture followed by a secondary biotinylated anti-TNF antibody forming a sandwich. The biotinylated second antibody is then detected using streptavidin-Europium and the amount of bound europium is determined by time resolved fluorescence. Compounds are screened for their TNF inducing activity that is measured in the assay as increased Europim counts over cells incubated in RPMI medium alone. “Hits” are selected based on their TNF-inducing activity relative to an optimal dose of lipopolysaccaride LPS (1 μg/ml), a strong TNF inducer. The robustness of the assay and low backgrounds have allowed for the routine selection of hits with ˜10% of LPS activity that is normally between 5-10× background (cells alone). Selected hits are then subjected to confirmation for their ability to induce cytokines from multiple donors at decreasing concentrations. Those compounds with consistent activity at or below 5 μM are considered confirmed for the purposes of this assay. The assay is readily modified for screening for compounds effective at higher or lower concentrations.
Background: An ELISA detects its analyte on a solid surface through an enzyme-linked reagent.
As a reminder, the minimal effective concentration is the smallest amount tested that counted as effective. In the case of `O=C1c2cc([N+](=O)[O-])ccc2-n2c1nc1ccccc1c2=O` [Compound 1001, 8-nitroindolo[2,1-b]quinazoline-6,12-dione], the minimal effective concentration is ≤ 1.5 µM. For `O=C1c2cc(F)ccc2-n2c1nc1ccc(Cl)cc1c2=O` [Compound 1002, 2-chloro-8-fluoroindolo[2,1-b]quinazoline-6,12-dione], the minimal effective concentration was ≥ 5 µM. Turning to `O=C1c2cc(F)ccc2-n2c1nc1ccc(F)cc1c2=O` [Compound 1003, 2,8-difluoroindolo[2,1-b]quinazoline-6,12-dione], the minimal effective concentration is ≥ 5 µM. Take `O=C1c2cc(F)ccc2-n2c1nc1cc(F)ccc1c2=O` [Compound 1004, 3,8-difluoroindolo[2,1-b]quinazoline-6,12-dione]: the minimal effective concentration is ≤ 1.5 µM. For the compound `O=C1c2cccc(F)c2-n2c1nc1ccccc1c2=O` [Compound 1005, 10-fluoroindolo[2,1-b]quinazoline-6,12-dione], the minimal effective concentration is ≤ 1.5 µM.

With `O=C1c2cc(F)ccc2-n2c1nc1cccc(F)c1c2=O` [Compound 1006, 1,8-difluoroindolo[2,1-b]quinazoline-6,12-dione], the minimal effective concentration is ≤ 1.5 µM. For `Cc1cccc2nc3n(c(=O)c12)-c1ccc(F)cc1C3=O` [Compound 1007, 8-fluoro-1-methylindolo[2,1-b]quinazoline-6,12-dione], the minimal effective concentration is ≤ 1.5 µM. With `O=C1c2cc(F)cc(F)c2-n2c1nc1ccccc1c2=O` [Compound 1008, 8,10-difluoroindolo[2,1-b]quinazoline-6,12-dione] the figure was ≤ 1.5 µM; with `O=C1c2cc(F)ccc2-n2c1nc1c(F)cccc1c2=O` [Compound 1009, 4,8-difluoroindolo[2,1-b]quinazoline-6,12-dione], ≥ 5 µM; with `O=C1c2cc(I)ccc2-n2c1nc1c(Br)cc(Br)cc1c2=O` [Compound 1010, 2,4-dibromo-8-iodoindolo[2,1-b]quinazoline-6,12-dione], ≥ 5 µM.

As to `Cc1cc(Cl)cc2c1-n1c(nc3ccccc3c1=O)C2=O` [Compound 1011, 8-chloro-10-methylindolo[2,1-b]quinazoline-6,12-dione], the minimal effective concentration was ≥ 5 µM. For `CC(C)(C)OC(=O)N1CCN(c2cc3nc4n(c(=O)c3cc2F)-c2ccc(I)cc2C4=O)CC1` [Compound 1012, 1,1-dimethylethyl 4-(2-fluoro-8-iodo-6,12-dioxo-6,12-dihydroindolo[2,1-b]quinazolin-3-yl)piperazine-1-carboxylate], the minimal effective concentration is ≥ 5 µM. As for `O=C1c2cc(I)ccc2-n2c1nc1c(Br)cc(Br)c(F)c1c2=O` [Compound 1013, 2,4-dibromo-1-fluoro-8-iodoindolo[2,1-b]quinazoline-6,12-dione], the minimal effective concentration is ≤ 1.5 µM. With `O=C1c2cc(I)ccc2-n2c1nc1c(Br)cc(Br)c(Cl)c1c2=O` [Compound 1014, 2,4-dibromo-1-chloro-8-iodoindolo[2,1-b]quinazoline-6,12-dione] the figure was ≤ 1.5 µM; with `O=C1c2ccccc2-n2c1nc1c(Br)cc(Br)c(F)c1c2=O` [Compound 1015, 2,4-dibromo-1-fluoroindolo[2,1-b]quinazoline-6,12-dione], ≤ 1.5 µM; with `O=C1c2cc(Cl)ccc2-n2c1nc1ccc(I)cc1c2=O` [Compound 1016, 8-chloro-2-iodoindolo[2,1-b]quinazoline-6,12-dione], ≤ 1.5 µM. Then `O=C1c2cc(Cl)ccc2-n2c1nc1cc(F)ccc1c2=O` [Compound 1017, 8-chloro-3-fluoroindolo[2,1-b]quinazoline-6,12-dione], with ≤ 1.5 µM; and `O=C1c2cc(Cl)ccc2-n2c1nc1cc(N3CCCCC3)ccc1c2=O` [Compound 1018, 8-chloro-3-piperidin-1-ylindolo[2,1-b]quinazoline-6,12-dione], with ≥ 5 µM. Then `O=C1c2cc(F)ccc2-n2c1nc1c(O)cccc1c2=O` [Compound 1019, 8-fluoro-4-hydroxyindolo[2,1-b]quinazoline-6,12-dione], with ≤ 1.5 µM; and `CCNC(=O)c1ccc2c(c1)C(=O)c1nc3c(OC)cccc3c(=O)n1-2` [Compound 1020, N-ethyl-4-(methyloxy)-6,12-dioxo-6,12-dihydroindolo[2,1-b]quinazoline-8-carboxamide], with ≤ 1.5 µM; and `O=C1c2cc(OC(F)(F)F)ccc2-n2c1nc1ccccc1c2=O` [Compound 1021, 8-[(trifluoromethyl)oxy]indol o[2,1-b]quinazoline-6,12-dione], with ≥ 5 µM.

As for `O=C1c2cc(OC(F)(F)F)ccc2-n2c1nc1cc(F)ccc1c2=O` [Compound 1022, 3-fluoro-8-[(trifluoromethyl)oxy]indol o[2,1-b]quinazoline-6,12-dione], the minimal effective concentration is ≤ 1.5 µM. As for `O=C1c2cc(OC(F)(F)F)ccc2-n2c1nc1cc(SCCO)ccc1c2=O` [Compound 1023, 3-[(2-hydroxyethyl)thio]-8-[(trifluoromethyl)oxy]indol o[2,1-b]quinazoline-6,12-dione], the minimal effective concentration was ≤ 1.5 µM. Regarding `O=C1c2ccccc2-n2c1nc1ncccc1c2=O` [Compound 1024, pyrido[2′,3′:4,5]pyrimido[1,2-a]indole-5,11-dione], the minimal effective concentration was ≤ 1.5 µM.

`O=C1c2cc(F)ccc2-n2c1nc1ncccc1c2=O` [Compound 1025, 9-fluoropyrido[2′,3′:4,5]pyri-mido[1,2-a]indole-5,11-dione]: the minimal effective concentration was ≤ 1.5 µM. Consider `O=C1c2cc(Br)ccc2-n2c1nc1ncccc1c2=O` [Compound 1026, 9-bromopyrido[2′,3′:4,5]pyri-mido[1,2-a]indole-5,11-dione], for which the minimal effective concentration was ≤ 1.5 µM. With `O=C1c2cc(Cl)ccc2-n2c1nc1ncccc1c2=O` [Compound 1027, 9-chloropyrido[2′,3′:4,5]pyri-mido[1,2-a]indole-5,11-dione], the minimal effective concentration was ≤ 1.5 µM. Turning to `O=C1c2cc(I)ccc2-n2c1nc1ncccc1c2=O` [Compound 1028, 9-iodopyrido[2′,3′:4,5]pyrimi-do[1,2-a]indole-5,11-dione], the minimal effective concentration was ≤ 1.5 µM. With `CCOC(=O)c1ccc2c(c1)C(=O)c1nc3ncccc3c(=O)n1-2` [Compound 1029, ethyl 5,11-dioxo-5,11-dihydropyrido[2′,3′:4,5]py-rimido[1,2-a]indole-9-carboxylate] the figure was ≤ 1.5 µM.

On to `CCCCCCCCNS(=O)(=O)c1ccc2c(c1)C(=O)c1nc3ncccc3c(=O)n1-2` [Compound 1030, N-octyl-5,11-dioxo-5,11-dihydropyrido[2′,3′:4,5]py-rimido[1,2-a]indole-9-sulfonamide], for which the minimal effective concentration was ≤ 1.5 µM. In the case of `O=C1c2c(cccc2C(F)(F)F)-n2c1nc1ncccc1c2=O` [Compound 1031, 10-(trifluoromethyl)pyrido[2′, 3′:4,5]pyrimido[1,2-a]indole-5,11-dione], the minimal effective concentration was ≤ 1.5 µM. In the case of `CCOP(=O)(CCCC/C=C/c1ccc2c(c1)C(=O)c1nc3ncccc3c(=O)n1-2)OCC` [Compound 1032, diethyl (5E)-6-(5,11-dioxo-5,11-dihydropyrido[2′,3′:4,5]py-rimido[1,2-a]indol-9-yl)hex-5-enylphosphonate], the minimal effective concentration was ≥ 5 µM. With `CC(=O)OCCCC/C=C/c1ccc2c(c1)C(=O)c1nc3ncccc3c(=O)n1-2` [Compound 1033, (5E)-6-(5,11-dioxo-5,11-dihydropyrido[2′,3′:4,5]py-rimido[1,2-a]indol-9-yl)hex-5-enyl acetate] the figure was ≤ 1.5 µM; with `O=C1c2cc(C(F)(F)F)ccc2-n2c1nc1ncccc1c2=O` [Compound 1034, 9-(trifluoromethyl)pyrido[2′, 3′:4,5]pyrimido[1,2-a]indole-5,11-dione], ≥ 5 µM; with `O=C1c2cc(CCCCCCOP(=O)(O)O)ccc2-n2c1nc1ncccc1c2=O` [Compound 1035, 6-(5,11-dioxo-5,11-dihydropyrido[2′,3′:4,5]py-rimido[1,2-a]indol-9-yl)hexyl dihydrogen phosphate], ≤ 1.5 µM. Then `O=C1c2cc(OC(F)(F)F)ccc2-n2c1nc1ncccc1c2=O` [Compound 1036, 9-[(trifluoromethyl)oxy]pyri-do[2′,3′:4,5]pyrimido[1,2-a]indole-5,11-dione], with ≤ 1.5 µM; and `O=C1c2ccccc2-n2c1nc1ccccc1c2=O` [Compound 1037, indolo[2,1-b]quinazoline-6,12-dione], with ≥ 20 µM. As to `O=C1c2cc(Cl)ccc2-n2c1nc1ccccc1c2=O` [Compound 1038, 8-chloroindolo[2,1-b]quinazoline-6,12-dione], the minimal effective concentration was ≥ 20 µM. Regarding `CCOC(=O)c1ccc2c(c1)C(=O)c1nc3ccccc3c(=O)n1-2` [Compound 1039, ethyl 6,12-dioxo-6,12-dihydroindolo[2,1-b]quinazoline-8-carboxylate], the minimal effective concentration is ≥ 20 µM.
